# Experimental data reported in patent publication US20150191462A1, “PYRROLIDINE DERIVATIVES AND THEIR USE AS COMPLEMENT PATHWAY MODULATORS” (priority 2012, published 2015).
# Biological target: Recombinant human factor D (Homo sapiens, UniProt P00746)
# Test: Human Complement Factor D Assay: Method 1
# Assay type: biochemical
# Settings: Factor D inhibition, 10 nM factor D, Z-Lys-thiobenzyl substrate, fluorescence readout
# Method: Human Complement Factor D Assay: Method 1 Recombinant human factor D (expressed in E. coli and purified using standard methods) at 10 nM concentration is incubated with test compound at various concentrations for 1 hour at room temperature in 0.1 M Hepes buffer, pH 7.5, containing 1 mM MgCl2, 1 M NaCl and 0.05% CHAPS. […] The increase in fluorescence is recorded at excitation of 485 nm and emission at 535 nm in a microplate spectrofluorimeter. IC50 values are calculated from percentage of inhibition of complement factor D-activity as a function of test compound concentration.
# Sequence of Recombinant human factor D (P00746 26-253): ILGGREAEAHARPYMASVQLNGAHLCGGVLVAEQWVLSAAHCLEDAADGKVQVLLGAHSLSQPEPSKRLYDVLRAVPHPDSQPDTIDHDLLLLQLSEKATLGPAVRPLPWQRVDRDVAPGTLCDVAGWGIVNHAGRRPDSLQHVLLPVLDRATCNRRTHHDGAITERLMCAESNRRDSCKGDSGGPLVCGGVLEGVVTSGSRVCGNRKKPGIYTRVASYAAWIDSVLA
row,SMILES,IC50 [nM]
1,"Cc1cc2c(C(N)=O)nn(CC(=O)N3[C@@H]4C[C@@H]4C[C@H]3C(=O)Nc3cccc(C(F)(F)F)n3)c2c(C)n1 [Example 29, 5,7-dimethyl-1-(2-oxo-2-((1R,3S,5R)-3-((6-(trifluoromethyl)pyridin-2-yl)carbamoyl)-2-azabicyclo[3.1.0]hexan-2-yl)ethyl)-1H-pyrazolo[3,4-c]pyridine-3-carboxamide]",6
2,"Cc1cc2c(C(N)=O)nn(CC(=O)N3[C@@H]4C[C@@H]4C[C@H]3C(=O)Nc3cncc(C(F)(F)F)n3)c2c(C)n1 [Example 30, 5,7-dimethyl-1-(2-oxo-2-((1R,3S,5R)-3-((6-(trifluoromethyl)pyrazin-2-yl)carbamoyl)-2-azabicyclo[3.1.0]hexan-2-yl)ethyl)-1H-pyrazolo[3,4-c]pyridine-3-carboxamide]",80
3,"NC(=O)n1cc(NC(=O)N2[C@@H]3C[C@@H]3C[C@H]2C(=O)Nc2cncc(Br)n2)c2ccccc21 [Example 31, (1R,3S,5R)-2-Aza-bicyclo[3.1.0]hexane-2,3-dicarboxylic acid 3-[(6-bromo-pyrazin-2-yl)-amide]2-[(1-carbamoyl-1H-indol-3-yl)-amide]]",4
4,"Cc1ncc(NC(=O)[C@@H]2C[C@H]3C[C@H]3N2C(=O)Nc2cn(C(N)=O)c3ccccc23)nc1Br [Example 32, (1R,3S,5R)-2-Aza-bicyclo[3.1.0]hexane-2,3-dicarboxylic acid 3-[(6-bromo-5-methyl-pyrazin-2-yl)-amide] 2-[(1-carbamoyl-1H-indol-3-yl)-amide]]",5
5,"C[C@@]1(F)C[C@@H](C(=O)Nc2cccc(Br)n2)N(C(=O)Nc2cn(C(N)=O)c3ccccc23)C1 [Example 34, (2S,4R)-4-Fluoro-4-methyl-pyrrolidine-1,2-dicarboxylic acid 2-[(6-bromo-pyridin-2-yl)-amide] 1-[(1-carbamoyl-1H-indol-3-yl)-amide]]",14
6,"NC(=O)n1cc(NC(=O)N2CCC[C@H]2C(=O)Nc2cccc(Br)n2)c2ccccc21 [Example 35, (S)-Pyrrolidine-1,2-dicarboxylic acid 2-[(6-bromo-pyridin-2-yl)-amide]-1-[(1-carbamoyl-1H-indol-3-yl)-amide]]",20
7,"NC(=O)n1cc(NC(=O)N2[C@@H]3C[C@@H]3C[C@H]2C(=O)Nc2cncc(C(F)(F)F)n2)c2ccccc21 [Example 36, (1R,3S,5R)-2-Aza-bicyclo[3.1.0]hexane-2,3-dicarboxylic acid 2-[(1-carbamoyl-1H-indol-3-yl)-amide] 3-[(6-trifluoromethyl-pyrazin-2-yl)-amide]]",55

# Results, then the compound that gave them:
row,IC50 [nM],SMILES
1,8,"C[C@@]12C[C@@H](C(=O)Nc3cccc(Br)n3)N(C(=O)Nc3cn(C(N)=O)c4ccccc34)[C@@H]1C2 [Example 37, (1R,3S,5R)-5-Methyl-2-aza-bicyclo[3.1.0]hexane-2,3-dicarboxylic acid 3-[(6-bromo-pyridin-2-yl)-amide] 2-[(1-carbamoyl-1H-indol-3-yl)-amide]]"
2,10,"NC(=O)n1cc(NC(=O)N2C[C@H](F)[C@H](F)[C@H]2C(=O)Nc2cccc(Br)n2)c2ccccc21 [Example 38, (2R,3R,4S)-N2-(6-bromopyridin-2-yl)-N1-(1-carbamoyl-1H-indol-3-yl)-3,4-difluoropyrrolidine-1,2-dicarboxamide]"
3,20,"NC(=O)n1cc(NC(=O)N2CCS[C@H]2C(=O)Nc2cccc(Br)n2)c2ccccc21 [Example 39, (S)-N2-(6-bromopyridin-2-yl)-N3-(1-carbamoyl-1H-indol-3-yl)thiazolidine-2,3-dicarboxamide]"
